Results from US20090068719A1, “IMMUNOASSAYS, HAPTENS, IMMUNOGENS AND ANTIBODIES FOR ANTI-HIV THERAPEUTICS” (priority 2003, published 2009).

Assays:
HIV = details: cited from earlier work
Anti-(D2)2 [1] = assay: Specificity of the lopinavir immunoassay (cross-reactivity); format: binding, rabbit; details: crossreactant 10 μg/mL + 5 μg/mL Lopinavir in human serum
Method: An immunoassay for lopinavir was conducted on the Cobas Mira Chemistry Analyzer (Roche). […] The specificity of the immunoassay was evaluated by adding potentially crossreactant drugs to human serum and determining the increase in the apparent concentration as a result of the presence of crossreactant. […] Each sample was assayed in duplicate. Testing was performed on the Cobas Mira analyzer. The percentage concentration above 5 μg/mL of lopinavir was calculated for each crossreactant.

[2] = human, in vivo; cited from earlier work
[3] = rats or dogs; cited from earlier work
[4] = rat, dog, and human primary hepatocytes; cited from earlier work
Anti-(D2)2 [5] = assay: Homogeneous enzyme immunoassay for lopinavir, standard curve; format: binding, rabbit; details: Enzyme Conjugate (D2)/G6PDH Reagent
Excerpt: Enzyme Conjugate (D2)/G6PDH and Antibody Anti-(D2)2 were selected as exemplary materials for the development of a homogeneous enzyme immunoassay for the anti-HIV therapeutic lopinavir. Enzyme Conjugate (D2)/G6PDH Reagent, as described in Example 45, was used. Also antibody Anti-(D2)2 was used in this Example as part of an antibody reagent (“Anti-(D2)2 Antibody Reagent”) further comprising nicotinamide adenine dinucleotide, glucose-6-phosphate, sodium chloride, bulking agent, surfactant, and preservatives.
An immunoassay for lopinavir was conducted on the Cobas Mira Chemistry Analyzer (Roche). On the analyzer, 4 μL of sample plus 61 μL water were incubated for 300 sec with 150 μL of Anti-(D2)2 Antibody Reagent. Subsequently, 75 μL of the Enzyme Conjugate (D2)/G6PDH Reagent was added. After 25 sec incubation, enzyme activity was monitored by following the production of NADH spectrophotometrically at 340 nm for 50 sec.
A series of known concentrations of lopinavir standards (ranging from 0 to 10 μg/mL) were prepared gravimetrically in MES (2-(N-Morpholino)ethanesulfonic acid, 0.01 M, pH 5.5) formulated with EDTA, protein additive, detergent, antiform agent, and preservative. Similarly, quality control samples were prepared (1.0 and 5.0 μg/mL).
Lopinavir was dissolved in methanol to give a stock solution of 1000 μg/mL. Synthetic buffered calibrator matrix 10 mL aliquots were spiked to give lopinavir standards with concentrations shown in Table 4. A series of Anti-(D2)2 Antibody Reagents were prepared by adding antibody to antibody/substrate diluent. Each antibody/substrate reagent was assayed with Enzyme Conjugate (D2)/G6PDH Reagent. Calibration curves were generated on the Cobas Mira by assaying each level in duplicate.

[6] = human; cited from earlier work

COc1c(O)ccc(C(=O)N[C@@H](CSc2ccccc2)[C@H](O)CN2C[C@H]3CCCC[C@H]3C[C@H]2C(=O)NC(C)(C)C)c1C [3′-methoxy-4′-hydroxynelfinavir]
EC50 relative to nelfinavir (HIV): fivefold higher

Cc1c(O)cccc1C(=O)N[C@@H](CSc1ccccc1)[C@H](O)CN1C[C@H]2CCCC[C@H]2C[C@H]1C(=O)NC(C)(C)C [Nelfinavir, nelfinavir]
Percent Increase in Apparent Lopinavir Conc. above 5 μg/mL (Anti-(D2)2 [1]): 1%

O=C1Nc2c(C(=O)O)ccnc2N(C2CC2)c2ncccc21 [4-carboxy-nevirapine]
Metabolite identified in urine [2]: 2.4%

Cc1ccnc2c1NC(=O)c1cccnc1N2C1CC1 [nevirapine]
Fraction of the dose excreted in urine as parent compound [2]: 2.7%
Mean plasma elimination half-life, NVP [2]: 20.0 h
Parent compound share of circulating radioactivity [2]: 75%

CCC[C@@]1(CCc2ccccc2)CC(O)=C([C@H](CC)c2cccc(NS(=O)(=O)c3ccc(C(F)(F)F)cn3)c2)C(=O)O1 [tipranavir]
Plasma metabolic profile [3]: only the parent drug
Metabolic stability in hepatocyte incubations [4]: stable

Cc1ccnc2c1NC(=O)c1cc(OC3OC(C(=O)O)C(O)C(O)C3O)cnc1N2C1CC1 (stereo not shown) [8-hydroxynevirapine glucuronide]
Metabolite identified in urine [2]: 1.3%

Cc1cc(OC2OC(C(=O)O)C(O)C(O)C2O)nc2c1NC(=O)c1cccnc1N2C1CC1 (stereo not shown) [2-hydroxynevirapine glucuronide]
Metabolite identified in urine [2]: 18.6%

Cc1c(O)cnc2c1NC(=O)c1cccnc1N2C1CC1 [3-hydroxynevirapine]
Metabolite identified in urine [2]: 1.2%

Cc1c(OC2OC(C(=O)O)C(O)C(O)C2O)cnc2c1NC(=O)c1cccnc1N2C1CC1 (stereo not shown) [3-hydroxynevirapine glucuronide]
Metabolite identified in urine [2]: 25.7%

O=C1Nc2ccc(Cl)cc2[C@@](C#CC2CC2)(C(F)(F)F)O1 [Efavirenz, efavirenz]
Percent Increase in Apparent Lopinavir Conc. above 5 μg/mL (Anti-(D2)2 [1]): 0%

CC(C)(C)NC(=O)[C@@H]1C[C@@H]2CCCC[C@@H]2CN1C[C@@H](O)[C@H](Cc1ccccc1)NC(=O)[C@H](CC(N)=O)NC(=O)c1ccc2ccccc2n1 [Saquinavir, saquinavir]
Percent Increase in Apparent Lopinavir Conc. above 5 μg/mL (Anti-(D2)2 [1]): 1%

CC(C)CN(C[C@@H](O)[C@H](Cc1ccccc1)NC(=O)O[C@H]1CCOC1)S(=O)(=O)c1ccc(N)cc1 [Amprenavir, amprenavir]
Percent Increase in Apparent Lopinavir Conc. above 5 μg/mL (Anti-(D2)2 [1]): 1%

CC(C)(C)NC(=O)[C@@H]1CN(Cc2cccnc2)CCN1C[C@@H](O)C[C@@H](Cc1ccccc1)C(=O)N[C@H]1c2ccccc2C[C@H]1O [Indinavir, indinavir]
Percent Increase in Apparent Lopinavir Conc. above 5 μg/mL (Anti-(D2)2 [1]): 0%

O=C1Nc2c(COC3OC(C(=O)O)C(O)C(O)C3O)ccnc2N(C2CC2)c2ncccc21 (stereo not shown) [12-hydroxynevirapine glucuronide]
Metabolite identified in urine [2]: 23.7%

CC(C)c1nc(CN(C)C(=O)N[C@H](C(=O)N[C@@H](Cc2ccccc2)C[C@H](O)[C@H](Cc2ccccc2)NC(=O)OCc2cncs2)C(C)C)cs1 [Ritonavir, ritonavir]
Percent Increase in Apparent Lopinavir Conc. above 5 μg/mL (Anti-(D2)2 [1]): 0%

O=C1Nc2c(CO)ccnc2N(C2CC2)c2ncccc21 [12-hydroxynevirapine]
Metabolite identified in urine [2]: 0.6%

Cc1cccc(C)c1OCC(=O)N[C@@H](Cc1ccccc1)[C@@H](O)C[C@H](Cc1ccccc1)NC(=O)[C@H](C(C)C)N1CCCNC1=O [Lopinavir, lopinavir]
Reaction Rate (Anti-(D2)2 [5]; Lopinavir 0.5 μg/mL): 311.1 mA/min
Reaction Rate (Anti-(D2)2 [5]; Lopinavir 1.0 μg/mL): 338.9 mA/min
Reaction Rate (Anti-(D2)2 [5]; Lopinavir 2.5 μg/mL): 390.7 mA/min
Reaction Rate (Anti-(D2)2 [5]; Lopinavir 5.0 μg/mL): 427.0 mA/min
Reaction Rate (Anti-(D2)2 [5]; Lopinavir 10.0 μg/mL): 457.1 mA/min
Metabolism by liver microsomes [6]: metabolized very extensively and rapidly
